{
  "source": "patent US20150328159A1",
  "about": "“Composition” (Innovata Limited, priority 2009, published 2015)",
  "origin": "cited, not measured here",
  "data": [
    {"substance": "hyaluronic acid", "values": [
      {"measurement": "solubility in organic solvents", "result": "insoluble"}
    ]}
  ]
}
